Values of other authors, collected in article PMC8472830, “Inclusion of Medium-Chain Triglyceride in Lipid-Based Formulation of Cannabidiol Facilitates Micellar Solubilization In Vitro, but In Vivo Performance Remains Superior with Pure Sesame Oil Vehicle” (Pharmaceutics, 2021).

How the values were obtained:
[1] = design: method as in PMID 12412831; details: pH 7.4
[2] = design: method as in PMID 29109461, PMID 27648135; details: rats, oral, natural sesame oil vehicle
[3] = design: method as in PMID 32634571; details: healthy male volunteers

## C=C(C)[C@@H]1CCC(C)=C[C@H]1c1c(O)cc(CCCCC)cc1O [CBD, Cannabidiol]
[1]
  clogD7.4: 6.53
[2]
  Drug concentration in lymph fluid compared to plasma: 250 fold
  Increase of systemic bioavailability of CBD compared to the lipid-free vehicle: 2.8 fold
[3]
  Increase of CBD oral absorption in sesame oil compared to CBD powder: eight-fold
